PubChem BioAssay (NCI)
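Growth conditions: 96-well plates. Treatment: test compound, 48 hours, 5 concentrations. Analysis: linear interpolation between bracketing concentrations; unreached endpoints set to highest concentration. GI50: concentration for 50% inhibition of growth. TGI is the concentration that stops growth completely.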

Experiments:
Assay in all cases: NCI anticancer screen, dose series, 48 h
[1] = system: HCT-15 colon
[2] = system: UO-31 renal
[3] = system: EKVX NSCLC
[4] = system: RPMI-8226 leukemia
[5] = system: PC-3 prostate
[6] = system: A549 NSCLC
[7] = system: SNB-19 CNS
[8] = system: UACC-62 melanoma
[9] = system: NCI-H226 lung
[10] = system: SN12C renal
[11] = system: LOX IMVI melanoma
[12] = system: HCC-2998 colon
[13] = system: SR leukemia
[14] = system: SNB-75 CNS
[15] = system: K-562 leukemia
[16] = system: SW-620 colon
[17] = system: A498 renal
[18] = system: COLO 205 colon
[19] = system: NCI-H522 lung
[20] = system: 786-0 renal
[21] = system: RXF 393 renal
[22] = system: OVCAR-8 ovarian
[23] = system: OVCAR-5 ovarian
[24] = system: OVCAR-3 ovarian
[25] = system: HOP-92 NSCLC
[26] = system: SK-MEL-28 melanoma
[27] = system: ACHN renal
[28] = system: NCI-H460 lung
[29] = system: NCI-H23 lung
[30] = system: UACC-257 melanoma
[31] = system: KM12 colon
[32] = system: HCT-116 colon
[33] = system: MCF7 breast
[34] = system: MDA-MB-435
[35] = system: CCRF-CEM leukemia
[36] = system: T-47D breast
[37] = system: U251 CNS
[38] = system: HS 578T breast
[39] = system: BT-549 breast
[40] = system: HT29 colon
[41] = system: MOLT-4 leukemia
[42] = system: MDA-MB-231 breast
[43] = system: OVCAR-4 ovarian
[44] = system: TK-10 renal
[45] = system: IGROV1 ovarian
[46] = system: SF-539 CNS
[47] = system: SF-295 CNS
[48] = system: M14 melanoma
[49] = system: SK-MEL-2 melanoma
[50] = system: SK-OV-3 ovarian
[51] = system: MALME-3M melanoma
[52] = system: NCI/ADR-RES ovarian
[53] = system: SK-MEL-5 melanoma
[54] = system: SF-268 CNS
[55] = system: HL-60(TB) leukemia
[56] = system: HOP-62 NSCLC

With `C/C=C\C(=O)O[C@@H]1CC2O[C@@H]3C=C(C)C(=O)C[C@]3(C)[C@]1(C)[C@]21CO1` the GI50 [1] was 0.671 µM, the TGI [1] was 16.5 µM and the GI50 [2] was 0.712 µM. It also gave a TGI [2] of 4.31 µM, a GI50 [3] of 0.873 µM and a TGI [3] of 5.7 µM. For the same compound, the GI50 [4] was 0.522 µM, the TGI [4] was 1.5 µM and the GI50 [5] was 0.799 µM. The TGI [5] was 8.12 µM, the GI50 [6] was 0.795 µM and the TGI [6] was 10.3 µM. It also gave a GI50 [7] of 0.565 µM, a TGI [7] of 3.33 µM and a GI50 [8] of 0.653 µM. It also gave a TGI [8] of 2.42 µM, a GI50 [9] of 0.648 µM and a TGI [9] of 4.36 µM. It also gave a GI50 [10] of 0.643 µM, a TGI [10] of 3.89 µM and a GI50 [11] of 0.209 µM. For the same compound, the TGI [11] was 1.64 µM, the GI50 [12] was 0.769 µM and the TGI [12] was 2.72 µM. The GI50 [13] was 0.67 µM, the TGI [13] was 3.04 µM and the GI50 [14] was 0.47 µM. It also gave a TGI [14] of 1.96 µM, a GI50 [15] of 0.507 µM and a TGI [15] of 4.48 µM. For the same compound, the GI50 [16] was 0.634 µM, the TGI [16] was 6.28 µM and the GI50 [17] was 0.676 µM. It also gave a TGI [17] of 2.38 µM, a GI50 [18] of 0.459 µM and a TGI [18] of 1.16 µM. For the same compound, the GI50 [19] was 0.486 µM, the TGI [19] was 1.62 µM and the GI50 [20] was 0.615 µM. The TGI [20] was 3.37 µM, the GI50 [21] was 0.499 µM and the TGI [21] was 1.62 µM. The GI50 [22] was 0.756 µM, the TGI [22] was 5.49 µM and the GI50 [23] was 0.796 µM. The TGI [23] was 3.82 µM, the GI50 [24] was 0.783 µM and the TGI [24] was 3.08 µM. For the same compound, the GI50 [25] was 0.538 µM, the TGI [25] was 1.89 µM and the GI50 [26] was 0.471 µM. The TGI [26] was 1.56 µM, the GI50 [27] was 0.642 µM and the TGI [27] was 2.77 µM. For the same compound, the GI50 [28] was 0.668 µM, the TGI [28] was 4.4 µM and the GI50 [29] was 0.587 µM. It also gave a TGI [29] of 2.14 µM, a GI50 [30] of 0.599 µM and a TGI [30] of 2.11 µM. For the same compound, the GI50 [31] was 0.567 µM, the TGI [31] was 5.55 µM and the GI50 [32] was 0.429 µM. The TGI [32] was 2.63 µM, the GI50 [33] was 0.459 µM and the TGI [33] was 14.9 µM. The GI50 [34] was 0.66 µM, the TGI [34] was 2.67 µM and the GI50 [35] was 0.422 µM. The TGI [35] was 25 µM, the GI50 [36] was 0.529 µM and the TGI [36] was 1.97 µM. It also gave a GI50 [37] of 0.648 µM, a TGI [37] of 5.6 µM and a GI50 [38] of 0.723 µM. For the same compound, the TGI [38] was 2.31 µM, the GI50 [39] was 0.699 µM and the TGI [39] was 1.92 µM. The GI50 [40] was 0.534 µM, the TGI [40] was 2.33 µM and the GI50 [41] was 0.581 µM. The TGI [41] was 2.24 µM, the GI50 [42] was 0.604 µM and the TGI [42] was 2.03 µM. It also gave a GI50 [43] of 0.632 µM, a TGI [43] of 1.93 µM and a GI50 [44] of 0.664 µM. It also gave a TGI [44] of 2.5 µM, a GI50 [45] of 0.842 µM and a TGI [45] of 6.44 µM. It also gave a GI50 [46] of 0.622 µM, a TGI [46] of 1.54 µM and a GI50 [47] of 0.715 µM. The TGI [47] was 4.77 µM, the GI50 [48] was 0.431 µM and the TGI [48] was 0.962 µM. It also gave a GI50 [49] of 0.468 µM, a TGI [49] of 1.48 µM and a GI50 [50] of 0.896 µM. It also gave a TGI [50] of 6.56 µM, a GI50 [51] of 0.612 µM and a TGI [51] of 2.37 µM. For the same compound, the GI50 [52] was 0.783 µM, the TGI [52] was 8.3 µM and the GI50 [53] was 0.528 µM. It also gave a TGI [53] of 1.37 µM, a GI50 [54] of 0.743 µM and a TGI [54] of 5.45 µM. The GI50 [55] was 0.522 µM, the TGI [55] was 1.35 µM and the GI50 [56] was 0.639 µM. The TGI [56] was 1.98 µM.
